Reference: US20240197888A1, “SOS1 PROTEIN DEGRADERS, PHARMACEUTICAL COMPOSITIONS THEREOF, AND THEIR THERAPEUTIC APPLICATIONS” (BioTheryX, Inc., priority 2021, published 2024)

What was measured:
Format in all cases: cell-based
SW480 (G12V) cells = test: Cell viability assay (CELLTITER-GLO), SW480 cells; details: Homo sapiens, 72 h, Inhibition of cancerous cells, 3 days incubation, luminescence
Protocol: (§1) AsPC-1, H358, and SW48 cells were cultured in RPMI 1640 media supplemented with 10% fetal bovine serum, streptomycin, and penicillin. Lovo and SW480 cells were cultured in DMEM media supplemented with 10% fetal bovine serum, streptomycin, and penicillin. The cell lines were plated in their respective medium supplemented with 2.5% fetal bovine serum, streptomycin, and penicillin. All cell lines were plated in white walled 96-well plates at 2,000 cells/well or 384-well plates at 500 cells/well, except Lovo, which were plated at 4,000 or 1,000 cells/well, respectively. The cells were incubated in DMSO (control) or a compound for 3 days at 37° C. under 5% CO2. A CELLTITER-GLO® reagent ([…] was then added to each well. After a 10 min incubation with shaking, luminescence was measured using an ENVISION® multimode plate reader. IC50 values are summarized in Table 1.

H358 (G12C) cells = test: Cell viability assay (CELLTITER-GLO), H358 cells; details: Homo sapiens, NCI-H358, 72 h, Inhibition of cancerous cells, 3 days incubation, luminescence
Protocol: as §1

Lovo (G13D) cells = test: Cell viability assay (CELLTITER-GLO), Lovo cells; details: Homo sapiens, 72 h, Inhibition of cancerous cells, 3 days incubation, luminescence
Protocol: as §1

SW48 (wt) cells = test: Cell viability assay (CELLTITER-GLO), SW48 cells; details: Homo sapiens, 72 h, Inhibition of cancerous cells, 3 days incubation, luminescence
Protocol: as §1

Compound | IC50 (SW480 (G12V) cells) | IC50 (H358 (G12C) cells) | IC50 (Lovo (G13D) cells) | IC50 (SW48 (wt) cells)
COc1cc2c(N[C@H](C)c3cccc(Br)c3)nc(C)nc2cc1OCCCCCCCN1CCN(C(C)=O)CC1 [Compound A26, (R)-1-(4-(7-((4-((1-(3-Bromophenyl)ethyl)amino)-6-methoxy-2-methyl-quinazolin-7-yl)oxy)heptyl)piperazin-1-yl)ethan-1-one] | 0.58 µM | 1.2 µM | 0.54 µM | 0.6 µM
COc1cc2c(N[C@H](C)c3cccc(Br)c3)nc(C)nc2cc1OCCCCCCCN1CCCCC1=O [Compound A25, (R)-1-(7-((4-((1-(3-Bromophenyl)ethyl)amino)-6-methoxy-2-methylquinazolin-7-yl)oxy)heptyl)piperidin-2-one] | 0.78 µM | 1.4 µM | 0.5 µM | 1.8 µM
COc1cc2c(N[C@H](C)c3cccc(Br)c3)nc(C)nc2cc1OCCCCCCCN1CCCC(F)(F)C1 [Compound A44, (R)—N-(1-(3-Bromophenyl)ethyl)-7-((7-(3,3-difluoropiperidin-1-yl)heptyl)oxy)-6-methoxy-2-methylquinazolin-4-amine] | 1.2 µM | 1.9 µM | 0.55 µM | 2 µM
COc1cc2c(N[C@H](C)c3cccc(Br)c3)nc(C)nc2cc1OCCCCCCC(=O)N1CCCCC1 [Compound A36, (R)-7-((4-((1-(3-Bromophenyl)ethyl)amino)-6-methoxy-2-methylquinazolin-7-yl)oxy)-1-(piperidin-1-yl)heptan-1-one] | 0.56 µM | 1.3 µM | 0.78 µM | 1.7 µM
COc1cc2c(N[C@H](C)c3cccc(Br)c3)nc(C)nc2cc1OCCCCc1ccncc1 [Compound A73, (R)—N-(1-(3-Bromophenyl)ethyl)-6-methoxy-2-methyl-7-(4-(pyridin-4-yl)-butoxy)quinazolin-4-amine] | 1 µM | 2.6 µM | 1.4 µM | 4.1 µM
COc1cc2c(N[C@H](C)c3cccc(Br)c3)nc(C)nc2cc1OCCCCCCCN1CCOCC1 [Compound A75, (R)—N-(1-(3-Bromophenyl)ethyl)-6-methoxy-2-methyl-7-((7-morpholinoheptyl)-oxy)quinazolin-4-amine] | 0.59 µM | 0.73 µM | 0.25 µM | 0.66 µM
CNCc1ccccc1-c1csc([C@@H](C)Nc2nc(C)nc3cc(OCCCCCCCN4CCCCC4)c(OC)cc23)c1 [Compound A2, (R)-6-methoxy-2-methyl-N-(1-(4-(2-((methylamino)methyl)phenyl)thiophen-2-yl)ethyl)-7-((7-(piperidin-1-yl)heptyl)oxy)quinazolin-4-amine] | 0.51 µM | 0.47 µM | 0.18 µM | 0.33 µM
CNCc1ccccc1-c1csc([C@H](C)Nc2nc(C)nc3cc(OCCOCCOC(=O)CC45CC6CC(CC(C6)C4)C5)c(OC)cc23)c1 [Compound A48, 2-(2-((6-Methoxy-2-methyl-4-(((S)-1-(4-(2-((methylamino)methyl)phenyl)-thiophen-2-yl)ethyl)amino)quinazolin-7-yl)oxy)ethoxy)ethyl 2-((3r,5r,7r)-adamantan-1-yl)acetate] | 0.57 µM | 0.94 µM | 0.58 µM | 0.57 µM
CNCc1ccccc1-c1csc([C@@H](C)Nc2nc(C)nc3cc(OCCNC(=O)CC45CC6CC(CC(C6)C4)C5)c(OC)cc23)c1 [Compound A51, 2-((3r,5r,7r)-Adamantan-1-yl)-N-(2-((6-methoxy-2-methyl-4-(((R)-1-(4-(2-((methylamino)methyl)phenyl)thiophen-2-yl)ethyl)amino)quinazolin-7-yl)oxy)ethyl)acetamide] | 0.62 µM | 1.1 µM | 0.47 µM | 0.75 µM
